Experimental data reported in patent publication US11702404B2, “GLP-1R modulating compounds” (priority 2019, dated 2023).
Like-named read-outs stand apart in the source and are kept apart here.

How the values were obtained:
[1] = Microsomal stability, human liver microsomes (predicted hepatic clearance); conditions: predicted from in vitro microsomal stability data
GLP-1R = GLP-1R (Homo sapiens, UniProt P43220); experiment: GLP-1R activation: cAMP increase in CHO cells stably expressing GLP-1R; format: cell-based
[2] = cAMP increase, CHO cells stably expressing GLP-1R, 10 point dose response, 30 minutes incubation, read-out: EC50

GLP-1R, sequence (P43220 24-463): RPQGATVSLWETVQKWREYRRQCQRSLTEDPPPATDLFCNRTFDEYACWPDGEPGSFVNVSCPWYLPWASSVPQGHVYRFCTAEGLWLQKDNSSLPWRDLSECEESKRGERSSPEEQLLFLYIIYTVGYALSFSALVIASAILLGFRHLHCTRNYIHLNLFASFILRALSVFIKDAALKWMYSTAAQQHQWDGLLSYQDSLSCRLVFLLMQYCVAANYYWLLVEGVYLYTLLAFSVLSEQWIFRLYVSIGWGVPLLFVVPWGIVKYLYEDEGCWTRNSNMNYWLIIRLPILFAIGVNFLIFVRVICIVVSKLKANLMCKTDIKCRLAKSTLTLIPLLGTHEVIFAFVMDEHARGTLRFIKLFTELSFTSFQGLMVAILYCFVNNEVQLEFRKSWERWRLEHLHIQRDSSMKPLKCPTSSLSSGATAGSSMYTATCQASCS

| Predicted Hepatic Clearance (Pred. Cl.) [1] [mL/min/kg] | EC50 (GLP-1R; [2]) [nM] | SMILES | EC50 (GLP-1R; EC50 (nM)) [nM] |
| --- | --- | --- | --- |
| 8.3 | 1730 | COCCn1c(Cc2ccc(-c3cccc(OCc4cc(C(C)C)ccc4OC)n3)cc2F)nc2ccc(C(=O)O)cc21 [Example 145, 2-(2-fluoro-4-(6-((5-isopropyl-2-methoxybenzyl)oxy)pyridin-2-yl)benzyl)-1-(2-methoxyethyl)-1H-benzo[d]imidazole-6-carboxylic acid] |  |
| 7.33 | 36.4 | COCCn1c(Cc2ccc(-c3cccc(OCc4cccc5scnc45)n3)cc2F)nc2ccc(C(=O)O)cc21 [Example 146, 2-(4-(6-(benzo[d]thiazol-4-ylmethoxy)pyridin-2-yl)-2-fluorobenzyl)-1-(2-methoxyethyl)-1H-benzo[d]imidazole-6-carboxylic acid] |  |
| 12 | 760 | COCCn1c(Cc2ccc(-c3cccc(OCc4cccc5c4nnn5C)n3)cc2F)nc2ccc(C(=O)O)cc21 [Example 147, 2-(2-fluoro-4-(6-((1-methyl-1H-benzo[d][1,2,3]triazol-4-yl)methoxy)pyridin-2-yl)benzyl)-1-(2-methoxyethyl)-1H-benzo[d]imidazole-6-carboxylic acid] |  |
| 11.5 | 2050 | COCCn1c(Cc2ccc(-c3cccc(OCc4cccc5ncsc45)n3)cc2F)nc2ccc(C(=O)O)cc21 [Example 148, 2-(4-(6-(benzo[d]thiazol-7-ylmethoxy)pyridin-2-yl)-2-fluorobenzyl)-1-(2-methoxyethyl)-1H-benzo[d]imidazole-6-carboxylic acid] |  |
| 12 | 130 | COCCn1c(Cc2ccc(-c3cccc(OCc4cccc5c4OC(C)(C)C5)n3)cc2F)nc2ccc(C(=O)O)cc21 [Example 152, 2-(4-(6-((2,2-dimethyl-2,3-dihydrobenzofuran-7-yl)methoxy)pyridin-2-yl)-2-fluorobenzyl)-1-(2-methoxyethyl)-1H-benzo[d]imidazole-6-carboxylic acid] |  |
| 5.17 | 0.11 | N#CCC1(Cn2c(Cc3cc(F)c(-c4ccc(F)c(OCc5ccc(C#N)cc5F)n4)cc3F)nc3ccc(C(=O)O)cc32)CC1 [Example 153, 2-(4-(6-((4-cyano-2-fluorobenzyl)oxy)-5-fluoropyridin-2-yl)-2,5-difluorobenzyl)-1-((1-(cyanomethyl)cyclopropyl)methyl)-1H-benzo[d]imidazole-6-carboxylic acid] |  |
| 4.83 | 0.51 | N#CCC1(Cn2c(Cc3c(F)cc(-c4ccc(F)c(OCc5ccc(C#N)cc5F)n4)cc3F)nc3ccc(C(=O)O)cc32)CC1 [Example 154, 2-(4-(6-((4-cyano-2-fluorobenzyl)oxy)-5-fluoropyridin-2-yl)-2,6-difluorobenzyl)-1-((1-(cyanomethyl)cyclopropyl)methyl)-1H-benzo[d]imidazole-6-carboxylic acid] |  |
| 5.5 | 73.2 | COCCn1c(Cc2ccc(-c3cccc(OCc4cccc(C(C)(C)C)c4)n3)cc2F)nc2ccc(C(=O)O)cc21 [Example 155, 2-(4-(6-((3-(tert-butyl)benzyl)oxy)pyridin-2-yl)-2-fluorobenzyl)-1-(2-methoxyethyl)-1H-benzo[d]imidazole-6-carboxylic acid] |  |
| 5.5 | 51.5 | COCCn1c(Cc2ccc(-c3cccc(OCc4ccc(Cl)c(C(C)C)c4)n3)cc2F)nc2ccc(C(=O)O)cc21 [Example 156, 2-(4-(6-((4-chloro-3-isopropylbenzyl)oxy)pyridin-2-yl)-2-fluorobenzyl)-1-(2-methoxyethyl)-1H-benzo[d]imidazole-6-carboxylic acid] |  |
| 7.67 | 534 | COCCn1c(Cc2ccc(-c3cccc(OCc4cccc(C(C)C)c4OC)n3)cc2F)nc2ccc(C(=O)O)cc21 [Example 157, 2-(2-fluoro-4-(6-((3-isopropyl-2-methoxybenzyl)oxy)pyridin-2-yl)benzyl)-1-(2-methoxyethyl)-1H-benzo[d]imidazole-6-carboxylic acid] |  |
| 3.83 | 37.1 | COCCn1c(Cc2ccc(-c3cccc(OCc4cccc(C(C)C)c4F)n3)cc2F)nc2ccc(C(=O)O)cc21 [Example 158, 2-(2-fluoro-4-(6-((2-fluoro-3-isopropylbenzyl)oxy)pyridin-2-yl)benzyl)-1-(2-methoxyethyl)-1H-benzo[d]imidazole-6-carboxylic acid] |  |
| 5 | 10.2 | COCCn1c(Cc2cc(F)c(-c3ncc(F)c(OCc4ccc(C#N)cc4F)n3)cc2F)nc2ccc(C(=O)O)cc21 [Example 160, 2-(4-(4-((4-cyano-2-fluorobenzyl)oxy)-5-fluoropyrimidin-2-yl)-2,5-difluorobenzyl)-1-(2-methoxyethyl)-1H-benzo[d]imidazole-6-carboxylic acid] |  |
| 3.83 | 1 | N#Cc1ccc(COc2nc(-c3cc(F)c(Cc4nc5ccc(C(=O)O)cc5n4CC4(CF)CC4)cc3F)ncc2F)c(F)c1 [Example 161, 2-(4-(4-((4-cyano-2-fluorobenzyl)oxy)-5-fluoropyrimidin-2-yl)-2,5-difluorobenzyl)-1-((1-(fluoromethyl)cyclopropyl)methyl)-1H-benzo[d]imidazole-6-carboxylic acid] |  |
| <1.83 | 0.17 | N#CCC1(Cn2c(Cc3ccc(-c4ccc(F)c(OCc5ccc(C#N)cc5F)n4)cc3F)nc3ccc(C(=O)O)cc32)CC1 [Example 162, 2-(4-(6-((4-cyano-2-fluorobenzyl)oxy)-5-fluoropyridin-2-yl)-2-fluorobenzyl)-1-((1-(cyanomethyl)cyclopropyl)methyl)-1H-benzo[d]imidazole-6-carboxylic acid] |  |
| 5 | 1.41 | N#Cc1ccc(COc2cccc(-c3cc(F)c(Cc4nc5ccc(C(=O)NS(=O)(=O)C6CC6)cc5n4C[C@@H]4CCO4)cc3F)n2)c(F)c1 [Example 163, (S)-2-(4-(6-((4-cyano-2-fluorobenzyl)oxy)pyridin-2-yl)-2,5-difluorobenzyl)-N-(cyclopropylsulfonyl)-1-(oxetan-2-ylmethyl)-1H-benzo[d]imidazole-6-carboxamide] |  |
| 6.7 | 32.9 | COCCn1c(Cc2cc(F)c(-c3ccc(F)c(NCc4ccc(C#N)cc4F)n3)cc2F)nc2ccc(C(=O)O)cc21 [Example 164, 2-(4-(6-((4-cyano-2-fluorobenzyl)amino)-5-fluoropyridin-2-yl)-2,5-difluorobenzyl)-1-(2-methoxyethyl)-1H-benzo[d]imidazole-6-carboxylic acid] |  |
| 4 | 0.01 | N#CCC1(Cn2c(Cc3ccc(-c4ccc(F)c(OCc5ccc(C#N)cc5F)n4)cc3F)nc3c(F)cc(C(=O)O)cc32)CC1 [Example 165, 2-(4-(6-((4-cyano-2-fluorobenzyl)oxy)-5-fluoropyridin-2-yl)-2-fluorobenzyl)-1-((1-(cyanomethyl)cyclopropyl)methyl)-4-fluoro-1H-benzo[d]imidazole-6-carboxylic acid] |  |
| 4.83 | 0.06 | N#Cc1ccc(COc2nc(-c3cc(F)c(Cc4nc5ccc(C(=O)O)cc5n4C[C@@H]4CCO4)c(F)c3F)ncc2F)c(F)c1 [Example 166, (S)-2-(4-(4-((4-cyano-2-fluorobenzyl)oxy)-5-fluoropyrimidin-2-yl)-2,3,6-trifluorobenzyl)-1-(oxetan-2-ylmethyl)-1H-benzo[d]imidazole-6-carboxylic acid] |  |
| 6 | 0.11 | N#Cc1ccc(COc2nc(-c3cc(F)c(Cc4nc5c(F)cc(C(=O)O)cc5n4CC4(CF)CC4)cc3F)ncc2F)c(F)c1 [Example 167, 2-(4-(4-((4-cyano-2-fluorobenzyl)oxy)-5-fluoropyrimidin-2-yl)-2,5-difluorobenzyl)-4-fluoro-1-((1-(fluoromethyl)cyclopropyl)methyl)-1H-benzo[d]imidazole-6-carboxylic acid] |  |
| <1.83 | 1.06 | N#CCC1(Cn2c(Cc3ccc(-c4ccnc(OCc5ccc(C#N)cc5F)n4)cc3F)nc3c(F)cc(C(=O)O)cc32)CC1 [Example 168, 2-(4-(2-((4-cyano-2-fluorobenzyl)oxy)pyrimidin-4-yl)-2-fluorobenzyl)-1-((1-(cyanomethyl)cyclopropyl)methyl)-4-fluoro-1H-benzo[d]imidazole-6-carboxylic acid] |  |
| 5.33 | 4.31 | COCCn1c(Cc2ccc(-c3ncc(F)c(OCc4ccc(C#N)cc4F)n3)c(F)c2F)nc2ccc(C(=O)O)cc21 [Example 169, 2-(4-(4-((4-cyano-2-fluorobenzyl)oxy)-5-fluoropyrimidin-2-yl)-2,3-difluorobenzyl)-1-(2-methoxyethyl)-1H-benzo[d]imidazole-6-carboxylic acid] |  |
| 6.33 | 509 | COCCn1c(Cc2ccc(-c3cccc(NCc4ccc(C#N)cc4F)n3)cc2F)nc2ccc(C(=O)O)cc21 [Example 170, 2-(4-(6-((4-cyano-2-fluorobenzyl)amino)pyridin-2-yl)-2-fluorobenzyl)-1-(2-methoxyethyl)-1H-benzo[d]imidazole-carboxylic acid] |  |
| 9.5 | 38 | COCCn1c(Cc2ccc(-c3cccc(OCc4ccc(C#N)cc4F)n3)cc2C(F)(F)F)nc2ccc(C(=O)O)cc21 [Example 172, 2-(4-(6-((4-cyano-2-fluorobenzyl)oxy)pyridin-2-yl)-2-(trifluoromethyl)benzyl)-1-(2-methoxyethyl)-1H-benzo[d]imidazole-carboxylic acid] |  |

| SMILES | Predicted Hepatic Clearance (Pred. Cl.) [1] [mL/min/kg] | EC50 (GLP-1R; [2]) [nM] | EC50 (GLP-1R; EC50 (nM)) [nM] |
| --- | --- | --- | --- |
| COCCn1c(Cc2cc(F)c(-c3nccc(OCc4ccc(C#N)cc4F)n3)cc2F)nc2ccc(C(=O)O)cc21 [Example 159, 2-(4-(4-((4-cyano-2-fluorobenzyl)oxy)pyrimidin-2-yl)-2,5-difluorobenzyl)-1-(2-methoxyethyl)-1H-benzo[d]imidazole-6-carboxylic acid] | 6 |  | 7.78 |
